# Experimental data taken from patent US9586931B2 (Merck Sharp & Dohme Corp., priority 2012, dated 2017).
# pIC50: −log10 of the molar value. “And” between values parts separate entries of the source, which are not always exact repeats. Identical values can stand only once.
# Biological target: T1, recombinant human GST-Syk (Homo sapiens, UniProt P43405)
# T1 construct: purchased Carna Biosciences 08-176
# Experiment: Homogeneous Time-Resolved Fluorescence (HTRF) assay for the recombinant human Syk enzyme
# Assay type: biochemical
# Details: recombinant human GST-Syk 5 pM, ATP 25 μM, 10-dose titration 10 μM to 0.508 nM; read-out: rhSYK Activity IC50
# Outline: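 GST-hSyk fusion protein phosphorylated a peptide for 45 min at room temperature. The reaction was quenched with 2 nM Eu-anti-phosphotyrosine antibody and 70 nM SA-APC in 15 mM Tris pH 7.5, 40 mM EDTA, 0.01% Tween 20. The HTRF signal was read after 30 min.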
row,pIC50,SMILES
1,7.45 and 7.77,"Cc1cc(Nc2cc(C(F)(F)F)ccn2)nc(-c2cn(C(C)C(=O)O)nn2)c1 (racemic) [Example 5.43, 2-[4-(4-methyl-6-{[4-(trifluoromethyl)pyridin-2-yl]amino}pyridin-2-yl)-1H-1,2,3-triazol-1-yl]propanoic acid]"
2,7.41,"Cc1cc(Nc2nccc(C(F)F)n2)cc(-c2cn(CC(C)(O)C(C)(C)O)nn2)c1 (centres unmarked) [Example 21.18, 1-[4-(3-{[4-(difluoromethyl)pyrimidin-2-yl]amino}-5-methylphenyl)-1H-1,2,3-triazol-1-yl]-2,3-dimethylbutane-2,3-diol]"
3,7.63,"Cc1cc(Nc2nccc(C(F)(F)F)n2)cc(-c2cn(CC(C)(C)O)nn2)c1 [Example 5.55, 2-methyl-1-[4-(3-methyl-5-{[4-(trifluoromethyl)pyrimidin-2-yl]amino}phenyl)-1H-1,2,3-triazol-1-yl]propan-2-ol]"
4,6.74,"Cc1cc(Nc2ncc(Cl)c(C)n2)cc(-c2cn(CC(C)(O)C(C)(C)O)nn2)c1 (centres unmarked) [Example 21.11, 1-(4-{3-[(5-chloro-4-methylpyrimidin-2-yl)amino]-5-methylphenyl}-1H-1,2,3-triazol-1-yl)-2,3-dimethylbutane-2,3-diol]"
5,8.24,"Cc1cc(Nc2cc(C(F)F)ccn2)nc(-c2cn(CC3CNCCO3)nn2)c1 (single isomer, unassigned) [Example 26.1, N-(4-(difluoromethyl)pyridin-2-yl)-4-methyl-6-(1-(morpholin-2-ylmethyl)-1H-1,2,3-triazol-4-yl)pyridin-2-amine]"
6,5.84,"Cc1cc(Nc2cc(C(F)(F)F)ccn2)nc(-c2cn(C(C)C(=O)NCCc3cccc(Oc4ccccc4)c3)nn2)c1 (centres unmarked) [Example 1.36, 2-[4-(4-methyl-6-{[4-(trifluoromethyl)pyridin-2-yl]amino}pyridin-2-yl)-1H-1,2,3-triazol-1-yl]-N-[2-(3-phenoxyphenyl)ethyl]propanamide]"
7,8.42,"Cc1cc(Nc2cc(C(F)(F)F)ccn2)nc(-c2cn(CCC(N)=O)nn2)c1 [Example 1.3, 3-[4-(4-methyl-6-{[4-(trifluoromethyl)pyridin-2-yl]amino}pyridin-2-yl)-1H-1,2,3-triazol-1-yl]propanamide]"
8,7.10,"Cc1cc(Nc2nccc(C(F)(F)F)n2)cc(-c2cn(CCOCCO)nn2)c1 [Example 5.49, 2-{2-[4-(3-methyl-5-{[4-(trifluoromethyl)pyrimidin-2-yl]amino}phenyl)-1H-1,2,3-triazol-1-yl]ethoxy}ethanol]"
9,8.46,"Cc1cc(Nc2cc(C(F)(F)F)ccn2)nc(-c2cn(C3CCC(C(=O)O)C(C)(C)C3)nn2)c1 (single isomer, unassigned) [Example 3.6, (R or S) 2,2-dimethyl-4-[4-(4-methyl-6-{[4-(trifluoromethyl)pyridin-2-yl]amino}pyridin-2-yl)-1H-1,2,3-triazol-1-yl]cyclohexanecarboxylic acid]"
10,7.39,"COC(=O)c1ccc(C(CO)n2cc(-c3cc(C)cc(Nc4cc(C(F)(F)F)ccn4)n3)nn2)cc1 (centres unmarked) [Example 4.16, methyl 4-{2-hydroxy-1-[4-(4-methyl-6-{[4-(trifluoromethyl)pyridin-2-yl]amino}pyridin-2-yl)-1H-1,2,3-triazol-1-yl]ethyl}benzoate]"
11,8.43,"Cc1cc(Nc2cc(C(F)F)ccn2)nc(-c2cn(C3CCCC(O)C3O)nn2)c1 (centres unmarked) [Example 21.38, 3-(4-(6-((4-(difluoromethyl)pyridin-2-yl)amino)-4-methylpyridin-2-yl)-1H-1,2,3-triazol-1-yl)cyclohexane-1,2-diol]"
12,7.22,"Cc1cc(Nc2cc(C(F)(F)F)ccn2)nc(-c2cn(CC3(O)CCC(C(=O)O)C(C)(C)C3)nn2)c1 (single isomer, unassigned) [Example 3.1, (R or S) 4-hydroxy-2,2-dimethyl-4-{[4-(4-methyl-6-{[4-(trifluoromethyl)pyridin-2-yl]amino}pyridin-2-yl)-1H-1,2,3-triazol-1-yl]methyl}cyclohexanecarboxylic acid]"
13,8.49,"Cc1cc(Nc2cc(C(F)(F)F)ccn2)nc(-c2cn(C3(CO)CCC3)nn2)c1 [Example 13.6, {1-[4-(4-methyl-6-{[4-(trifluoromethyl)pyridin-2-yl]amino}pyridin-2-yl)-1H-1,2,3-triazol-1-yl]cyclobutyl}methanol]"
14,7.40,"Cc1cc(Nc2nccc(OC(C)C)n2)cc(-c2cn(CC(C)(O)C(C)(C)O)nn2)c1 (centres unmarked) [Example 21.13, 2,3-dimethyl-1-[4-(3-methyl-5-{[4-(1-methylethoxy)pyrimidin-2-yl]amino}phenyl)-1H-1,2,3-triazol-1-yl]butane-2,3-diol]"
15,6.75,"COC(=O)[C@H]1CC[C@](O)(c2cn(-c3cc(C)cc(Nc4nccc(C(F)(F)F)n4)c3)nn2)CC1(C)C [Example 15.10, methyl (1S,4R)-4-hydroxy-2,2-dimethyl-4-[1-(3-methyl-5-{[4-(trifluoromethyl)pyrimidin-2-yl]amino}phenyl)-1H-1,2,3-triazol-4-yl]cyclohexanecarboxylate]"
16,7.64,"Cc1cc(Nc2cc(C(F)(F)F)ccn2)nc(-c2cn([C@@H](C)C(=O)NCC(N)=O)nn2)c1 [Example 1.22, (2S)-N-(2-amino-2-oxoethyl)-2-[4-(4-methyl-6-{[4-(trifluoromethyl)pyridin-2-yl]amino}pyridin-2-yl)-1H-1,2,3-triazol-1-yl]propanamide]"
17,8.11,"Cc1cc(Nc2nccc(C(F)(F)F)n2)cc(-c2nnc(CCC(=O)O)[nH]2)c1 [Example 20.1, 3-(5-(3-Methyl-5-((4-(trifluoromethyl)pyrimidin-2-yl)amino)phenyl)-4H-1,2,4-triazol-3-yl)propanoic acid]"
18,8.15,"Cc1cc(Nc2nccc(C(F)(F)F)n2)cc(-c2cn(CC(C)(O)CO)nn2)c1 (single isomer, unassigned) [Example 21.3, 2-methyl-3-[4-(3-methyl-5-{[4-(trifluoromethyl)pyrimidin-2-yl]amino}phenyl)-1H-1,2,3-triazol-1-yl]propane-1,2-diol]"
19,8.72,"Cc1cc(Nc2cc(C(F)(F)F)ccn2)nc(-c2cn(CC(O)c3ccc(C(=O)O)cc3)nn2)c1 (centres unmarked) [Example 3.18, 4-{1-hydroxy-2-[4-(4-methyl-6-{[4-(trifluoromethyl)pyridin-2-yl]amino}pyridin-2-yl)-1H-1,2,3-triazol-1-yl]ethyl}benzoic acid]"
20,8.77,"Cc1cc(Nc2cc(C(F)F)ccn2)nc(-c2cn(C(C)C3CNC(=O)O3)nn2)c1 (single isomer, unassigned) [Example 7.10, 5-(1-(4-(6-((4-(difluoromethyl)pyridin-2-yl)amino)-4-methylpyridin-2-yl)-1H-1,2,3-triazol-1-yl)ethyl)oxazolidin-2-one]"
21,6.30,"Cc1cc(Nc2nccc(C(F)(F)F)n2)cc(-c2cn(CC3CCO3)nn2)c1 (racemic) [Example 5.50, N-{3-methyl-5-[1-(oxetan-2-ylmethyl)-1H-1,2,3-triazol-4-yl]phenyl}-4-(trifluoromethyl)pyrimidin-2-amine]"
22,7.21,"Cc1cc(Nc2nccc(OCCO)n2)cc(-c2cn(C[C@H](O)CO)nn2)c1 [Example 5.8, (2S)-3-[4-(3-{[4-(2-hydroxyethoxy)pyrimidin-2-yl]amino}-5-methylphenyl)-1H-1,2,3-triazol-1-yl]propane-1,2-diol]"
23,7.58,"Cc1cc(Nc2cc(OC3CCCCC3)ccn2)nc(-c2cn(C(C)c3ccc(C(=O)O)cc3)nn2)c1 (centres unmarked) [Example 2.6, 4-{1-[4-(6-{[4-(cyclohexyloxy)pyridin-2-yl]amino}-4-methylpyridin-2-yl)-1H-1,2,3-triazol-1-yl]ethyl}benzoic acid]"
24,7.04,"Cc1cc(Nc2nccc(C)n2)cc(-c2cn(C3CCCCC3(C)O)nn2)c1 (single isomer, unassigned) [Example 7.27, 1-methyl-2-(4-{3-methyl-5-[(4-methylpyrimidin-2-yl)amino]phenyl}-1H-1,2,3-triazol-1-yl)cyclohexanol]"
25,7.55,"COc1ccnc(Nc2cc(C)cc(-c3cn(CC(C)(O)C(C)(C)O)nn3)c2)n1 (centres unmarked) [Example 21.23, 1-(4-{3-[(4-methoxypyrimidin-2-yl)amino]-5-methylphenyl}-1H-1,2,3-triazol-1-yl)-2,3-dimethylbutane-2,3-diol]"
26,8.32,"Cc1cc(Nc2cc(C(F)(F)F)ccn2)nc(-c2cn(CC(O)COCC(F)(F)F)nn2)c1 (centres unmarked) [Example 4.32, 1-[4-(4 methyl-6-{[4-(trifluoromethyl)pyridin-2-yl]amino}pyridin-2-yl)-1H-1,2,3-triazol-1-yl]-3-(2,2,2-trifluoroethoxy)propan-2-ol]"
27,8.30,"Cc1cc(Nc2nccc(C(F)F)n2)cc(-c2cn(CC3(C)CNC(=O)O3)nn2)c1 (single isomer, unassigned) [Example 7.32, 5-{[4-(3-{[4-(difluoromethyl)pyrimidin-2-yl]amino}-5-methylphenyl)-1H-1,2,3-triazol-1-yl]methyl}-5-methyl-1,3-oxazolidin-2-one]"
28,7.13 and 7.09,"Cc1cc(Nc2nccc(C(F)(F)F)n2)cc(-c2cn(CC(N)=O)nn2)c1 [Example 5.79, 2-[4-(3-methyl-5-{[4-(trifluoromethyl)pyrimidin-2-yl]amino}phenyl)-1H-1,2,3-triazol-1-yl]acetamide]"
29,6.20,"COc1ccc(OC)c(C(O)C(C)NC(=O)C(C)n2cc(-c3cc(C)cc(Nc4cc(C(F)(F)F)ccn4)n3)nn2)c1 (centres unmarked) [Example 1.38, N-[2-(2,5-dimethoxyphenyl)-2-hydroxy-1-methylethyl]-2-[4-(4-methyl-6-{[4-(trifluoromethyl)pyridin-2-yl]amino}pyridin-2-yl)-1H-1,2,3-triazol-1-yl]propanamide]"
